pIC50: −log10 of the molar value. Structures can show the parent of a compound that is named as a salt.

A short description of series [1]: MDCK permeability assay (efflux ratio). The format is in vitro ADME, Canine. Conditions: dog, MDCK-MDR1, pH 7.4, MDR-MDCK cells, 37° C., Papp(B-A)/Papp(A-B). The protocol: 1. MDCK Permeability Assay
Multi Drug Resistance-Madin-Darby Canine Kidney (MDR-MDCK) cells were obtained from NIH (Bethesda, Md., USA). Cells were plated on Costar 3401 Transwell 12 well, 12 mm diameter, 0.4 um pore size plates (Costar, Mass., USA) and cultured for at least 6 days prior to the transport assay. The cells were carefully pre-washed with Hank's balanced salt solution containing 10 mM HEPES and 15 mM D-glucose at pH 7.4, which was also used as the assay buffer. The test compounds were dosed on the apical side (A-B) or the basolateral side (B-A) with 0.2 mM Lucifer Yellow (500 μL into apical side, 1500 μL into basolateral side). The test compounds in the apical or basolateral chambers were at an initial concentration of 10 μM. The plates were incubated at 37° C. with 5% CO2 and 90% relative humidity for 2 hours. One hundred microliters of receiver solution (basolateral side for A-B transport experiment, apical side for B-A transport experiment) was transferred to a 96 well plate for LC-MS-MS quantization of the test compound concentration and fluorometer quantization of Lucifer Yellow.
Quality control compounds and TEER measurements were run to assure proper operation of the assay (see Table 2). The TEER values of each well use for the assay should be ≧1400 ohm·cm^2.

Series [2] deals with T1, hrPARP-1 (human recombinant, Trevigen) (Homo sapiens, UniProt P09874).
T1 construct: purchased Trevigen
T1 sequence (P09874 whole entry): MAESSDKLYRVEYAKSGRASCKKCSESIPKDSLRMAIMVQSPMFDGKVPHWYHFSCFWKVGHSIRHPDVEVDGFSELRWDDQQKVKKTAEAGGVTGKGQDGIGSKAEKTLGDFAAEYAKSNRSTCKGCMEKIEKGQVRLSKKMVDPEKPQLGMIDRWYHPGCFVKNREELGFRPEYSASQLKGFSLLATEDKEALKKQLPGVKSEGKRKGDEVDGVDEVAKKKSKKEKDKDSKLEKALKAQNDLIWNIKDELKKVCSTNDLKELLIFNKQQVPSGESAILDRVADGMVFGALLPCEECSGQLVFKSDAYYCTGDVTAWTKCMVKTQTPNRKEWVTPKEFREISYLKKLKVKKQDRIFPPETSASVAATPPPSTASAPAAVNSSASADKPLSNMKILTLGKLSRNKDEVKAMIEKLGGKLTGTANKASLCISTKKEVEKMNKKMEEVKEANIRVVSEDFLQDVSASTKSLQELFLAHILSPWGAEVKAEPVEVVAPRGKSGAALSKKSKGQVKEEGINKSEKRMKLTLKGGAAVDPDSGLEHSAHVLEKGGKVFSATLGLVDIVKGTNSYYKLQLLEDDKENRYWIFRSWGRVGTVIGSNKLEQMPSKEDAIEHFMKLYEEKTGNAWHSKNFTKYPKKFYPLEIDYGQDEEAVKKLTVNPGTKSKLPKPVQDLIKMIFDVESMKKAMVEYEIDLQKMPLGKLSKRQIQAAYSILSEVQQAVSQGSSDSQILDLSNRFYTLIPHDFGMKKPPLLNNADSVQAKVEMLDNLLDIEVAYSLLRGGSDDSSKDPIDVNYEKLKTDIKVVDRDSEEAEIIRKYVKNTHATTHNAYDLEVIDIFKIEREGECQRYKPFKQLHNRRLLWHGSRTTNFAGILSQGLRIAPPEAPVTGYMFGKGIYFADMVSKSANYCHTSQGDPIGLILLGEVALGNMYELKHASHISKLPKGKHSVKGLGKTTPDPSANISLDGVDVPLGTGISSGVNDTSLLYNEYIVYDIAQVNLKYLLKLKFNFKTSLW
Briefly: Functional assessment of human PARP-1 enzymatic activity. As to conditions: 1 U hrPARP-1, 15 μg/mL activated DNA, 5 μM NAD+, 20 min room temperature. The format is biochemical. The protocol:
Functional Assessment of Human PARP-1 Enzymatic Activity
hrPARP-1 (human recombinant, Trevigen), Activated DNA (Sigma), 6(5H)-phenanthridinone (PND), (Sigma), NAD+ (Calbiochem), PARP-1 assay buffer (50 mM Tris, 2 mM MgCl2, pH 8.0), 20% acetophenone in EtOH, 2 M KOH
88% formic acid, 110° C. oven, Flexstation Plate Reader.
Compound plates were prepared by making a series of 1:3 dilutions for each tested compound, 10 steps of each at 20 μL in DMSO starting from a concentration of 5 mM. NAD^+ (39 μL of a 6.4 μM solution) were added to each well of a 96-well flat bottom fluorescent assay plate. Test compound (1 μL) was added to each well. To initiate the reaction, 10 μL of PARP (contains 5 U of PARP and 75 μg/mL activated DNA) was added with a final 1 U hrPARP-1, 15 μg/mL activated DNA and 5 μM of NAD^+. The highest concentration used for test compounds was 100 μM. The plates were incubated at room temperature on a shaker. After 20 min, 20 μL of 2 M KOH and 20 μL of 20% acetophenone were added. The plate was incubated 10 min. at 4° C., and 90 μL of 88% formic acid was added. After incubating in an 110° C. oven for 5 min, the plate was cooled to room temperature and read of a Flexstation Plate Reader (excitation at 360 nm, emission at 445 nm).
LSW data analysis software was used to generate PARP-1 IC50s.

Series [3] in a line: Microsomal stability, rat liver microsomes. The class given is in vitro ADME. As to conditions: 0.5 mg/mL protein. How it is done:
(§1) The assay protocol was described in Summerfield S G, Read K, Begley D J, Obradovic T, Hidalgo I J, Coggon S, Lewis A V, Porter R A, Jeffrey P 2007. Central Nervous System Drug Disposition: The Relationship between in Situ Brain Permeability and Brain Free Fraction. J Pharmacol Exp Ther, 322(1):205-213; and Li Di, E. Kerns, S. Li, S. Petusky, “High Throughput Metabolic Stability Assay for Insoluble Compounds”, Int. J. Pharm., 317, 54-60, 2006.
(§2) The samples were incubated with liver microsomes from rat, mouse, and human at 1 μM at microsomal protein concentration of 0.5 mg/mL at 37° C. in the presence of NADPH cofactor. At both time 0 and 15 minutes incubation, cold acetonitrile was added to the wells to stop the reaction. The solution was centrifuged and the supernatants were analyzed using LC-MS-MS. “Phase I” represents Phase I metabolism-oxidative metabolism by microsomes and “Phase II” represents Phase I oxidative metabolism (stated above) plus cofactors added that allow for Phase II (non-oxidative, conjugative) metabolism to take place.
On the technique in general: Microsomes from liver hold many membrane-bound enzymes, among them those of drug oxidation.

Series [4] is described as follows: Brain (B)-Plasma (P) dialysis. The format is in vitro ADME. As to conditions: for Kp at 5 h, 10 μM: diluted plasma or brain homogenate vs PBS, 37° C., read-out: Brain-Plasma Dialysis B/P Ratio; for B/P ratio divided by MDCK efflux ratio at 10 μM: read-out: Brain-Plasma Dialysis B/P/efflux ratio (ER). The protocol: 2. Brain (B)-Plasma (P) Dialysis
DMSO stock solution of 1 mM was prepared and 10 μL was added to 990 uL plasma (1 plasma:3 PBS) or brain homogeneous (1 brain:12 PBS). The final concentration was 10 μM test compound with 1% DMSO. The dialysis was setup with 200 uL PBS vs. 200 uL diluted plasma or diluted brain homogenates with test compounds. The dialysis plate was incubated at 37° C., 70 RPM for 5 hours. At the end of the incubation, 150 μL PBS, 50 uL plasma and 50 uL of brain homogenates were sampled from the dialysis device. Each of the samples was matched with PBS, plasma and brain homogenates to give consistent matrix material. Cold acetonitrile of 300 μL was added to the sample to precipitate the proteins and tissues. The solutions were centrifuged and the supernatants were transferred for LC-MS-MS analysis. Four replicates were preformed for each test compound. Data was calculated according to Summerfield S G, Read K, Begley D J, Obradovic T, Hidalgo I J, Coggon S, Lewis A V, Porter R A, Jeffrey P 2007. Central Nervous System Drug Disposition: The Relationship between in Situ Brain Permeability and Brain Free Fraction.

The nature of series [5]: Microsomal stability, human liver microsomes. The format is in vitro ADME. As to conditions: 0.5 mg/mL protein. The protocol:
as §1, §2

The nature of series [6]: Microsomal stability, C57 mouse liver microsomes. The format is in vitro ADME. Conditions: 0.5 mg/mL protein. How it is done: as §1, §2
Where [7] appears, read: NADPH, Phase I, read-out: Microsomal Stability Rat Phase I t1/2.
The mark [8] stands for this setting: Phase I plus Phase II cofactors, read-out: Microsomal Stability Rat Phase I & II t1/2.
Setting [9] is: NADPH, Phase I, read-out: Microsomal Stability Human Phase I t1/2.
The mark [10] stands for this setting: Phase I plus Phase II cofactors, read-out: Microsomal Stability Human Phase I & II t1/2.
The mark [11] stands for this setting: NADPH, Phase I, read-out: Microsomal Stability C57 Mouse Phase I t1/2.
[12] abbreviates: Phase I plus Phase II cofactors, read-out: Microsomal Stability C57 Mouse Phase I & II t1/2.

As usually defined, the efflux ratio is the permeability from basolateral to apical divided by that in the opposite direction, in the common usage. As a reminder, the pIC50 is −log10 of the IC50, conventionally taken in molar units. Regarding `Br.CN(C)Cc1cc2c([nH]c(=O)c3cccc(O)c32)s1` [Example 2, 2-Dimethylaminomethyl-9-hydroxythieno[2,3-c]isoquinolin-5(4H)-one hydrobromide], the efflux ratio at 2 h, 10 μM in series [1] was determined as 1.7. Also, the pIC50 in series [2] is 7.55. Besides, the half-life at 1 μM in series [3] (setting [7]) was 6 min; in series [3] (setting [8]) it was less than 1 min; in series [5] (setting [9]), greater than 30 min; in series [5] (setting [10]) it was 17 min; in series [6] (setting [11]), 15 min; in series [6] (setting [12]) it was 19 min. In addition, the Kp at 5 h, 10 μM in series [4] was 0.05. For the same compound, the B/P ratio divided by MDCK efflux ratio at 10 μM in series [4] stood at 0.03.

For `CN(C)Cc1cc2c([nH]c(=O)c3ccccc32)s1` [Example 3, 2-[(Dimethylamino)methyl]thieno[2,3-c]isoquinolin-5(4H)-one hydrochloride], in series [2], the pIC50 is 6.59.

Take `CN(C)Cc1cc2c([nH]c(=O)c3cc(F)ccc32)s1` [Example 4, 2-[(Dimethylamino)methyl]-7-fluorothieno-[2,3-c]isoquinolin-5(4H)-one hydrochloride]: in series [2], the pIC50 was 7.00.

In the case of `CN(C)Cc1cc2c([nH]c(=O)c3cccc(F)c32)s1` [Example 5, 2-[(Dimethylamino)methyl]-9-fluorothieno[2,3-c]isoquinolin-5(4H)-one hydrochloride], the pIC50 in series [2] was 6.70.

Take `CN(C)Cc1cc2c([nH]c(=O)c3ccc(Cl)cc32)s1` [Example 6, 8-Chloro-2-[(dimethylamino)methyl]thieno[2,3-c]isoquinolin-5(4H)-one hydrochloride]: the pIC50 in series [2] was 5.65.

In the case of `CN(C)Cc1cc2c([nH]c(=O)c3cc(F)cc(O)c32)s1` [Example 7, 2-[(Dimethylamino)methyl]-7-fluoro-9-hydroxythieno[2,3-c]isoquinolin-5(4H)-one hydrochloride], the pIC50 in series [2] was 7.42.

On to `COc1ccc2c(=O)[nH]c3sc(CN(C)C)cc3c2c1` [Example 8, 2-[(Dimethylamino)methyl]-8-methoxythieno[2,3-c]isoquinolin-5(4H)-one hydrochloride], for which the pIC50 in series [2] is 5.66.

As for `CN(C)Cc1cc2c([nH]c(=O)c3ccccc32)o1` [Example 9, 2-[(Dimethylamino)methyl]furo[2,3-c]isoquinolin-5(4H)-one hydrochloride], the pIC50 in series [2] was 6.79.

Regarding `O=c1[nH]c2sc(CN3CCOCC3)cc2c2c(O)cccc12` [Example 10, 9-Hydroxy-2-(morpholin-4-ylmethyl)thieno[2,3-c]isoquinolin-5(4H)-one], the efflux ratio at 2 h, 10 μM in series [1] worked out at 3.1. Also, the pIC50 in series [2] is 8.25. Also, the half-life at 1 μM is 30 min in series [3] (setting [7]); greater than 30 min in series [3] (setting [8]); greater than 30 min in series [5] (setting [9]); 30 min in series [5] (setting [10]); greater than 30 min in series [6] (setting [11]); greater than 30 min in series [6] (setting [12]). The Kp at 5 h, 10 μM in series [4] amounted to 0.81. The B/P ratio divided by MDCK efflux ratio at 10 μM in series [4] was 0.04.

On to `O=c1[nH]c2sc(CN3CCCCC3)cc2c2c(O)cccc12` [Example 11, 9-Hydroxy-2-(piperidin-1-ylmethyl)thieno[2,3-c]isoquinolin-5(4H)-one], for which the efflux ratio at 2 h, 10 μM in series [1] came out at 10.4. For the same compound, the pIC50 in series [2] is 8.33. Also, the half-life at 1 μM in series [3] (setting [7]) is 10 min; in series [3] (setting [8]), 18 min; in series [5] (setting [9]), 19 min; in series [5] (setting [10]) it was 17 min; in series [6] (setting [11]), 27 min; in series [6] (setting [12]) it was greater than 30 min. The Kp at 5 h, 10 μM in series [4] came to 1.25. Also, in series [4], the B/P ratio divided by MDCK efflux ratio at 10 μM was 0.12.

For the compound `O=c1[nH]c2sc(CN3CCSC3)cc2c2c(O)cccc12` [Example 12, 9-Hydroxy-2-(1,3-thiazolidin-3-ylmethyl)thieno[2,3-c]isoquinolin-5(4H)-one], the efflux ratio at 2 h, 10 μM in series [1] stood at 0.8. Moreover, in series [2], the pIC50 is 8.48. Further, the half-life at 1 μM in series [3] (setting [7]) came out at 5 min; in series [3] (setting [8]), 5 min; in series [5] (setting [9]), 6 min; in series [5] (setting [10]), 4 min; in series [6] (setting [11]), 4 min; in series [6] (setting [12]), 5 min. Besides, the Kp at 5 h, 10 μM in series [4] was 0.79. Also, the B/P ratio divided by MDCK efflux ratio at 10 μM in series [4] was 0.79.

On to `CC(C)NCc1cc2c([nH]c(=O)c3cccc(O)c32)s1` [Example 13, 9-Hydroxy-2-{[(1-methylethyl)amino]methyl}thieno[2,3-c]isoquinolin-5(4H)-one], for which the pIC50 in series [2] was 7.07. The half-life at 1 μM in series [3] (setting [7]) was less than 1 min; in series [3] (setting [8]), less than 1 min; in series [5] (setting [9]) it was greater than 30 min; in series [5] (setting [10]), greater than 30 min; in series [6] (setting [11]) it was 28 min; in series [6] (setting [12]), 24 min. Besides, in series [4], the Kp at 5 h, 10 μM amounted to 1.53.

Take `O=c1[nH]c2sc(CN(Cc3ccccc3)Cc3ccccc3)cc2c2c(O)cccc12` [Example 16, 2-[(Dibenzylamino)methyl]-9-hydroxythieno[2,3-c]isoquinolin-5(4H)-one]: the pIC50 in series [2] is 5.98.

With `CN(Cc1ccccc1)Cc1cc2c([nH]c(=O)c3cccc(O)c32)s1` [Example 17, 2-{[Benzyl(methyl)amino]methyl}-9-hydroxythieno[2,3-c]isoquinolin-5(4H)-one], in series [2], the pIC50 was 6.43.

The record behind these values is patent US9079915B2, “Thienyl- and furanyl-isoquinolinones and methods for using them” (priority 2008, dated 2015).
